Literature values, collected in PMC3320885 (PLoS ONE, 2012).

Assays:
[1] = tested on: receptor tyrosine kinase Kit; set-up: method as in PMID 12543790, PMID 17114238
[2] = tested on: receptor tyrosine kinase PDGFR; set-up: method as in PMID 12543790, PMID 17114238

For `COc1cc(Nc2c(C#N)cnc3cc(OCCCN4CCN(C)CC4)c(OC)cc23)c(Cl)cc1Cl` [bosutinib], the “effect of T315I mutation” value (BCR-Abl T315I mutant) is listed as “confer resistance”, the “effect of V299L mutation” value (BCR-Abl V299L mutant) is listed as “confer resistance” and the “activity against Kit” value [1] is listed as “devoid of activity”. The “activity against PDGFR” value [2] was “devoid of activity”, the “effect of Q252H mutation on inhibition” value (BCR-Abl Q252H mutant) was “not affected” and the “effect of Y253F mutation on inhibition” value (BCR-Abl Y253F mutant) was “not affected”.
